Where a chain is given by its changes, count along the chain named.
Legend:
Details in all cases: at 10 µM
[1] = biological target: Receptor-type tyrosine-protein kinase FLT3 (Homo sapiens) (UniProt P36888); assay: (§1) Selectivity interaction (KinomeScan (DiscoverX)) EUB0000607a FLT3
[2] = tested on: Receptor-type tyrosine-protein kinase FLT3 (Homo sapiens), P36888 [UNDEFINED MUTATION]; assay: as §1
[3] = tested on: T1, Receptor-type tyrosine-protein kinase FLT3 (Homo sapiens), P36888 [D835Y]; assay: as §1
T1 sequence (whole entry): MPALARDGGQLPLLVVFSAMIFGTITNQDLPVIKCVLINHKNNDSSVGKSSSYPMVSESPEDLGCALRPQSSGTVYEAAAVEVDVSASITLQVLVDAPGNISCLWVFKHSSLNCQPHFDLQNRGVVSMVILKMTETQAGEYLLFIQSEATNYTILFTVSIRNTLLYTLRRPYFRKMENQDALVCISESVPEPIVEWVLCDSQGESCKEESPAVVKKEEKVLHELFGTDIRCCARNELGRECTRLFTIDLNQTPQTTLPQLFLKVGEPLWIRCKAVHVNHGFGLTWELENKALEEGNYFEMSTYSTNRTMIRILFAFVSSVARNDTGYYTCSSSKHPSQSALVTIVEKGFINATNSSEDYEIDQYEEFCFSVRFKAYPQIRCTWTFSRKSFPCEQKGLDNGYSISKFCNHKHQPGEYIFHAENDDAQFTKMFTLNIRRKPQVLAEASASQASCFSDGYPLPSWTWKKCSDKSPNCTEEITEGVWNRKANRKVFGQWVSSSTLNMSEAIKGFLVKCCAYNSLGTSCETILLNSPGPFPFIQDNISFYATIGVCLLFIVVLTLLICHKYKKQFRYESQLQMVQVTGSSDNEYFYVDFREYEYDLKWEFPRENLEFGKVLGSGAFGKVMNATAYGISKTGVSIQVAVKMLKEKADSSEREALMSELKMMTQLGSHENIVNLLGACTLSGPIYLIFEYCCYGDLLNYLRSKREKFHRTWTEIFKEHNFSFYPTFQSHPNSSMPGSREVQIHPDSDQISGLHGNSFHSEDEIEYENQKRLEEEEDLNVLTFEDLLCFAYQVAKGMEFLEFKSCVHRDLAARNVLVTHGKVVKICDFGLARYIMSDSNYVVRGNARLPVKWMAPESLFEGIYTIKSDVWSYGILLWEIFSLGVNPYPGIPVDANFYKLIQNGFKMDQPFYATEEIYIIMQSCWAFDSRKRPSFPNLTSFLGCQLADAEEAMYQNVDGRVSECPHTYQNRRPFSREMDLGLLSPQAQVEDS

[4] = tested on: T2, Receptor-type tyrosine-protein kinase FLT3 (Homo sapiens), P36888 [R834Q]; assay: as §1
T2 sequence (whole entry): T1 sequence (whole entry) with R834Q, Y835D

[5] = tested on: T3, Receptor-type tyrosine-protein kinase FLT3 (Homo sapiens), P36888 [D835H]; assay: as §1
T3 sequence (whole entry): T1 sequence (whole entry) with Y835H

CNC(=O)Nc1ccc(-c2nc(N3CC4CCC(C3)O4)c3cnn(C4CCC5(CC4)OCCO5)c3n2)cc1
% of control [1]: 75%
% of control [2]: 100%
% of control [3]: 99%
% of control [4]: 79%
% of control [5]: 82%

— ChEMBL document CHEMBL5465560, “Selectivity Literature for EUbOPEN Chemogenomic Library” (2024)
